According to US20220409617A1, “Drug Formulations and Methods of Treatment for Metabolic Disorders” (The Regents of the University of California, priority 2019, published 2022):

How the values were obtained:
[1] = mouse, in vivo; cited from earlier work
A549 lung cancer cells = assay: KRAS-mediated mitochondrial fission in A549 cells; assay type: cell-based, human; details: A549, oncogenic KRAS; 893 5 μM 1 h, leflunomide 50 μM 24 h
Procedure: 3T3-L1 cells were maintained in DMEM with 10% FBS and 1% penicillin-streptomycin until induced to differentiate. 3T3-L1 pre-adipocytes were differentiated as described in (M. P. Valley, et al., Anal. Biochem. 505: 43-50, 2016, the disclosure of which is incorporated herein by reference) with slight modifications. Briefly, pre-adipocytes were grown to confluence. After 2 d, cells were induced with maintenance media containing 500 μM IBMX (15879, Sigma-Aldrich, St. Louis, Mo.), 1 μM dexamethasone (D4902, Sigma-Aldrich), 5 μg/mL bovine insulin (10516, Sigma-Aldrich), and 5 μM troglitazone (50-115-0786, ApexBio). Media was changed every 2-3 d for 7 d. On day 7 post-induction, media was changed to maintenance media+5 μg/mL bovine insulin. On day 9 post-induction, media was changed to maintenance media. Mature adipocytes were used 12-14 d post-induction for all experiments. LSL-KrasG12D mouse embryonic fibroblasts (MEFs) with and without Cre-mediated deletion of the STOP cassette were obtained from David Tuveson (Cold Spring Harbor Laboratory, Cold Spring Harbor N.Y., USA) in 2000. p53^flox/flox MEFs were derived in house (2015) from C57BL/6 mice using standard techniques and immortalized by transient expression of Cre recombinase and deletion of p53. MEFs were cultured and maintained in DMEM with 10% FBS and 1% penicillin-streptomycin. A549 cells were cultured in DMEM with 10% FBS, 1% penicillin-streptomycin and 1% sodium pyruvate. Stock solution of palmitic acid (ACROS Organics, cat # AC129702500) was prepared at 100 mM in ethanol. Palmitate (250 μM) was conjugated to 1% (w/v) fatty-acid free bovine serum albumin (Sigma, A8806) in DMEM at 37° C. for 20 min. For all immunofluorescence assays, 8,000 MEFs were seeded into 8-chamber slides (Cellvis, cat # C8-1.5H-N) 12-16 h before treatment. Cells were pre-treated with sphingolipid-like compound 893 (5 μM in water), myriocin (10 μM in methanol), fumonisin-B1 (30 μM in DMSO), or celastrol (500 nM in DMSO) for 3 h followed by a 3 h treatment with BSA-conjugated palmitate mixture or BSA alone. […]
MEFs were washed twice with PBS and fixed with 4% paraformaldehyde for 10 min at RT. […] NADH/NADPH autofluorescence was detected with 740 nm excitation and 450±50 nm detectors using a Mai Tai two-photon laser. Fluorescence microscopy was performed on a Zeiss LSM 780 confocal using a 63× oil objective with a […] numerical aperture (NA) or using a Nikon TE2000-S inverted epifluorescence microscope with a 100× oil objective (1.3 NA) and a Photometrics CoolSNAP ES2 monochrome CCD camera. […]

[2] = tested on: mouse embryonic fibroblasts (MEFs); assay: Ceramide-induced (C16:0 CER, C2-ceramide) mitochondrial fragmentation; assay type: cell-based
Procedure: 3T3-L1 cells were maintained in DMEM with 10% FBS and 1% penicillin-streptomycin until induced to differentiate. 3T3-L1 pre-adipocytes were differentiated as described in (M. P. Valley, et al., Anal. Biochem. 505: 43-50, 2016, the disclosure of which is incorporated herein by reference) with slight modifications. Briefly, pre-adipocytes were grown to confluence. After 2 d, cells were induced with maintenance media containing 500 μM IBMX (15879, Sigma-Aldrich, St. Louis, Mo.), 1 μM dexamethasone (D4902, Sigma-Aldrich), 5 μg/mL bovine insulin (10516, Sigma-Aldrich), and 5 μM troglitazone (50-115-0786, ApexBio). Media was changed every 2-3 d for 7 d. On day 7 post-induction, media was changed to maintenance media+5 μg/mL bovine insulin. On day 9 post-induction, media was changed to maintenance media. Mature adipocytes were used 12-14 d post-induction for all experiments. LSL-KrasG12D mouse embryonic fibroblasts (MEFs) with and without Cre-mediated deletion of the STOP cassette were obtained from David Tuveson (Cold Spring Harbor Laboratory, Cold Spring Harbor N.Y., USA) in 2000. p53^flox/flox MEFs were derived in house (2015) from C57BL/6 mice using standard techniques and immortalized by transient expression of Cre recombinase and deletion of p53. MEFs were cultured and maintained in DMEM with 10% FBS and 1% penicillin-streptomycin. A549 cells were cultured in DMEM with 10% FBS, 1% penicillin-streptomycin and 1% sodium pyruvate. Stock solution of palmitic acid (ACROS Organics, cat # AC129702500) was prepared at 100 mM in ethanol. Palmitate (250 μM) was conjugated to 1% (w/v) fatty-acid free bovine serum albumin (Sigma, A8806) in DMEM at 37° C. for 20 min. For all immunofluorescence assays, 8,000 MEFs were seeded into 8-chamber slides (Cellvis, cat # C8-1.5H-N) 12-16 h before treatment. Cells were pre-treated with sphingolipid-like compound 893 (5 μM in water), myriocin (10 μM in methanol), fumonisin-B1 (30 μM in DMSO), or celastrol (500 nM in DMSO) for 3 h followed by a 3 h treatment with BSA-conjugated palmitate mixture or BSA alone. Where cells were treated with C2-ceramide (50 μM in DMSO) or C16:0 ceramide (100 μM in ethanol) for 3 h, cells were pre-treated with sphingolipid-like compound 893 for 1-3 h as indicated, mdivi-1 (50 μM in DMSO) for 1 h or 24 h, M1 (5 μM in DMSO) for 24 h, mdivi-1 and M1 together for 24 h, leflunomide (50 μM in methanol) for 1 h or 24 h, or with P110 (1 μM in water) for 1 h or 12 h. LSL or KRAS^G12D MEFs were treated with sphingolipid-like compound 893 (5 μM) for 6 h prior to fixation.
MEFs were washed twice with PBS and fixed with 4% paraformaldehyde for 10 min at RT. Cells were permeabilized with 0.3% Triton X-100 in blocking buffer containing 10% fetal bovine serum for 20 min at 37° C. followed by overnight incubation with mouse anti-citrate synthase (sc-390693, Santa Cruz Biotechnology; dilution, 1:200) or rabbit-anti-DRP1 at 1:100 (#8570, Cell Signaling Technology) at 4° C. Cells were then washed twice with PBS and incubated with AlexaFluor 488 goat anti-mouse (A28175, Invitrogen) or AlexaFluor 594 donkey anti-rabbit (A32754, Invitrogen) secondary antibodies at RT followed by 5 min incubation with 1 μg/ml DAPI and 2 washes in PBS. For NADH autofluorescence studies, mice were gavaged with vehicle or 120 mg/kg sphingolipid-like compound 893 at ZT8.5 (4-10.5 h before sacrifice between ZT12.5 and ZT18). Post sacrifice, livers were excised, washed 3× with PBS, placed in DMEM supplemented with 10% FBS and 1% penicillin-streptomycin, and immediately imaged. NADH/NADPH autofluorescence was detected with 740 nm excitation and 450±50 nm detectors using a Mai Tai two-photon laser. Fluorescence microscopy was performed on a Zeiss LSM 780 confocal using a 63× oil objective with a […] numerical aperture (NA) or using a Nikon TE2000-S inverted epifluorescence microscope with a 100× oil objective (1.3 NA) and a Photometrics CoolSNAP ES2 monochrome CCD camera. […]

For `Cc1oncc1C(=O)Nc1ccc(C(F)(F)F)cc1` [leflunomide], the “Food intake and body weight in obese mice” value [1] is given as “failed to reduce food intake or body weight in obese mice”, the “Reversal of mitochondrial fragmentation / tubularity in A549 cells” value (A549 lung cancer cells) is given as “did not reverse mitochondrial fragmentation in A549 lung cancer cells” and the “Protection from ceramide-induced mitochondrial fragmentation” value ([2]; MEFs, C16:0 CER 100 μM or C2-ceramide 50 μM 3 h, 893 5 μM, mdivi-1 50 μM, M1 5 μM, leflunomide 50 μM, P110 1 μM) is given as “blocked C16:0 ceramide-induced mitochondrial fragmentation after a 24 h, but not a 1 h, pre-incubation”. For the same compound, the “Potency relative to compound 893 (less potent)” value ([2]; blocking ceramide-induced mitochondrial fragmentation in vitro) was 10 fold.
